Our source for the IC50 values is BindingDB's records for doi:10.1016/s0960-894x(01)00529-7 (The R. W. Johnson Pharmaceutical Research Institute, 2001).

A short description of the experiment: Inhibition of thrombin-induced human gel-filtered platelet aggregation.
The IC50 is the concentration needed to halve the response being measured. Molecule `O=C(N[C@@H](CNC(=O)C1CCCn2c(C=CC3CCNCC3)nnc21)C(=O)O)OCc1ccccc1` (stereo partly specified) [2-Benzyloxycarbonylamino-3-{[3-(2-piperidin-4-yl-vinyl)-5,6,7,8-tetrahydro-[1,2,4]triazolo[4,3-a]pyridine-8-carbonyl]-amino}-propionic acid] displayed a concentration for half-maximal inhibition (IC50) of 0.041 nM.
`O=C(NC[C@H](NS(=O)(=O)Cc1ccccc1)C(=O)O)C1CCCn2c(/C=C/C3CCNCC3)nnc21` (stereo partly specified) [2-Phenylmethanesulfonylamino-3-{[3-(2-piperidin-4-yl-vinyl)-5,6,7,8-tetrahydro-[1,2,4]triazolo[4,3-a]pyridine-8-carbonyl]-amino}-propionic acid] had an IC50 of 0.043 nM.
Consider `O=C(O)C[C@H](NC(=O)C1CCCn2c(/C=C/C3CCNCC3)nnc21)c1cnc2ccccc2c1` (stereo partly drawn) [(S)-3-{[3-((E)-2-Piperidin-4-yl-vinyl)-5,6,7,8-tetrahydro-[1,2,4]triazolo[4,3-a]pyridine-8-carbonyl]-amino}-3-quinolin-3-yl-propionic acid], for which half-maximal inhibition (IC50) required 0.057 nM.
Consider `O=C(Cc1cccnc1)N[C@@H](CNC(=O)C1CCCn2c(/C=C/C3CCNCC3)nnc21)C(=O)O` (stereo partly specified) [3-{[3-(2-Piperidin-4-yl-vinyl)-5,6,7,8-tetrahydro-[1,2,4]triazolo[4,3-a]pyridine-8-carbonyl]-amino}-2-(2-pyridin-3-yl-acetylamino)-propionic acid], for which the concentration for half-maximal inhibition (IC50) was found to be 0.12 nM.
The molecule `O=C(N[C@@H](CNC(=O)[C@@H]1CCCN(C(=O)CCC2CCNCC2)C1)C(=O)O)OCc1ccccc1` [RWJ-53419] came in with a 50% inhibitory concentration (IC50) of 0.027 nM.
For `CC1(C(=O)NC[C@H](NC(=O)OCc2ccccc2)C(=O)O)CCCn2c(CCC3CCNCC3)nnc21` (stereo partly specified) [2-Benzyloxycarbonylamino-3-{[8-methyl-3-(2-piperidin-4-yl-ethyl)-5,6,7,8-tetrahydro-[1,2,4]triazolo[4,3-a]pyridine-8-carbonyl]-amino}-propionic acid], it took 2.7 nM to reach half-maximal inhibition (IC50).
Molecule `O=C(O)C[C@H](NC(=O)[C@@H]1CCCN(C(=O)CCC2CCNCC2)C1)c1cccnc1` [(S)-3-{[(R)-1-(3-Piperidin-4-yl-propionyl)-piperidine-3-carbonyl]-amino}-3-pyridin-3-yl-propionic acid] returned a half-inhibitory concentration (IC50) of 0.06 nM.
With `O=C(O)C[C@H](NC(=O)C1CCCn2c(CCC3CCNCC3)nnc21)c1cccnc1` (stereo partly drawn) [(S)-3-{[3-(2-Piperidin-4-yl-ethyl)-5,6,7,8-tetrahydro-[1,2,4]triazolo[4,3-a]pyridine-8-carbonyl]-amino}-3-pyridin-3-yl-propionic acid], the IC50 was 0.016 nM.
The value for `O=C(N[C@@H](CNC(=O)C1CCCn2c(CCC3CCNCC3)nnc21)C(=O)O)OCc1ccccc1` (stereo partly specified) [2-Benzyloxycarbonylamino-3-{[3-(2-piperidin-4-yl-ethyl)-5,6,7,8-tetrahydro-[1,2,4]triazolo[4,3-a]pyridine-8-carbonyl]-amino}-propionic acid] was 0.068 nM; that for `O=C(O)C[C@H](NC(=O)C1CCCn2c(/C=C/C3CCNCC3)nnc21)c1cccnc1` (stereo partly drawn) [(S)-3-{[3-((E)-2-Piperidin-4-yl-vinyl)-5,6,7,8-tetrahydro-[1,2,4]triazolo[4,3-a]pyridine-8-carbonyl]-amino}-3-pyridin-3-yl-propionic acid] was 0.061 nM.
`O=C(O)C[C@H](NC(=O)c1cccn2c(CCC3CCNCC3)nnc12)c1cccnc1` [(S)-3-{[3-(2-Piperidin-4-yl-ethyl)-[1,2,4]triazolo[4,3-a]pyridine-8-carbonyl]-amino}-3-pyridin-3-yl-propionic acid] came in with an IC50 of 0.37 nM.
